The values below are quoted from earlier work in patent US10307430B2, “KATP antagonists (glibenglamid) for use for promoting growth and/or treating hyperglycaemia of a premature infant” (ASSISTANCE PUBLIQUE—HOPITAUX DE PARIS, priority 2011, dated 2019).

For one series, the system named is human fetal β cells. The note with it: human fetal β cells from 14 to 20 week gestational fetus (Weinhaus et al., 2003).
The conditions of series [1]: intravenous, first week of life, very low birth weight infants (Beardsall et al., 2007).
For series [2] the following is noted: preterm newborn infants, when used with caution (Mitanchez, 2007; Beardsall and Dunger, 2008).
The mark [3] stands for this setting: early insulin replacement, intravenous (Beardsall et al., 2008).

`COC(=O)C1=C(C)NC(C)=C([N+](=O)[O-])C1c1ccccc1C(F)(F)F` (stereo not shown) [BAY K8644]: in the series with human fetal β cells, the “insulin secretion in response to secretagogue” value (“insulin secretion in response” below) is recorded as “able to secrete insulin”.

For `[Cl-].[K+]` [KCl], the “insulin secretion in response” value in the series with human fetal β cells is recorded as “able to secrete insulin”.

With `Cc1cnc(C(=O)NCCc2ccc(S(=O)(=O)NC(=O)NC3CCCCC3)cc2)cn1` [glipizide], the “insulin secretion in response” value in the series with human fetal β cells was “able to secrete insulin”.

On to insulin, for which, in series [1], the IGF-I levels result is given as “increases IGF-I levels” and the blood glucose control result is “improves blood glucose control”. In series [2], the endogenous glucose production result is “efficient to reduce endogenous glucose production”. For the same compound, under setting [3], the risk of hypoglycaemia result is recorded as “increased risk of hypoglycaemia” and the “weight loss in the first week of life” value is “reduced weight loss”. The glucose control result (early insulin replacement, intravenous, 194 very-low-birth-weight infants (Beardsall et al., 2008)) is reported as “improved glucose control”. Further, the clinical benefit result (early insulin therapy, infants with very low birth weight (Beardsall et al., 2008)) was “no clinical benefit”.
